Test results reported in the supplement of paper PMC10307832.

Assays:
Assay in all cases: relative viability (nuclei count vs DMSO), 5 days (fraction); higher = more cells survive
[1] = compound: CC1=C(C(=NN1)C)CC2=C(C3=C(S2)N(C(=O)N(C3=O)C)CC(C)C)C(=O)N4C[C@@H](CO4)O + CS(=O)(=O)CCNCc1ccc(-c2ccc3ncnc(Nc4ccc(OCc5cccc(F)c5)c(Cl)c4)c3c2)o1 [Lapatinib] (partner 2 µM)
How it was run: (§1)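 Lung cancer cell lines in 1536-well plates got either a single drug or a fixed anchor-drug dose together with five library-drug doses (not always all listed) in √10 steps, by pin tool, on the day after seeding. Nuclei were counted after 5 days, and relative viability is the treated-to-vehicle ratio of nuclei counts. Values are medians of duplicate plates.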

[2] = compound: Cc1ccccc1C(C(=O)NC1CCCCC1)N(C(=O)Cn1ccnc1C)c1cccc(F)c1 [IDH-C35] + Cc1nc(NC(=O)N2CCC[C@H]2C(N)=O)sc1-c1ccnc(C(C)(C)C(F)(F)F)c1 [Alpelisib] (partner 2 µM)
How it was run: as §1

[3] = compound: Cc1ccccc1C(C(=O)NC1CCCCC1)N(C(=O)Cn1ccnc1C)c1cccc(F)c1 [IDH-C35] + Cc1cc(Nc2cc(N3CCN(C)CC3)nc(Sc3ccc(NC(=O)C4CC4)cc3)n2)n[nH]1 [Tozasertib] (partner 0.1 µM)
How it was run: as §1

[4] = compound: Cc1ccccc1C(C(=O)NC1CCCCC1)N(C(=O)Cn1ccnc1C)c1cccc(F)c1 [IDH-C35] + O=C(c1cc(Cc2n[nH]c(=O)c3ccccc23)ccc1F)N1CCN(C(=O)C2CC2)CC1 [Olaparib] (partner 8 µM)
How it was run: as §1

Cell Line	relative viability ([1]; first compound 0.0025 µM)	relative viability ([1]; first compound 0.007906 µM)	relative viability ([1]; first compound 0.025 µM)	relative viability ([1]; first compound 0.07906 µM)	relative viability ([1]; first compound 0.25 µM)	relative viability ([2]; first compound 0.08 µM)	relative viability ([2]; first compound 0.253 µM)	relative viability ([2]; first compound 0.8 µM)	relative viability ([2]; first compound 2.53 µM)	relative viability ([2]; first compound 8 µM)	relative viability ([3]; first compound 0.08 µM)	relative viability ([3]; first compound 0.253 µM)	relative viability ([3]; first compound 0.8 µM)	relative viability ([3]; first compound 2.53 µM)	relative viability ([3]; first compound 8 µM)	relative viability ([4]; first compound 0.08 µM)	relative viability ([4]; first compound 0.253 µM)	relative viability ([4]; first compound 0.8 µM)	relative viability ([4]; first compound 2.53 µM)	relative viability ([4]; first compound 8 µM)
NCI-H1734	1.19	1.11	1.02	0.986	0.812	0.764	0.694	0.72	0.641	0.648	0.28	0.27	0.246	0.247	0.249	0.585	0.628	0.61	0.634	0.588
NCI-H1755	1.04	0.919	1.02	1.04	1.07	0.976	0.875	0.955	0.927	0.877	0.587	0.522	0.607	0.671	0.553	0.923	0.806	0.884	0.847	0.866
NCI-H1793	0.514	0.649	0.549	0.431	0.426	0.764	0.689	0.76	0.74	0.677	0.353	0.415	0.329	–	0.296	0.934	0.903	0.932	0.862	0.859
NCI-H1915	0.98	1.02	0.953	0.967	1.06	1.08	1.07	1.04	1.05	1.04	0.407	0.42	0.438	0.429	0.396	0.267	0.269	0.245	0.274	0.256
NCI-H1944	0.877	0.94	0.951	0.822	0.92	0.848	0.911	0.826	0.75	0.81	0.249	0.248	0.246	0.253	0.265	0.402	0.429	0.451	0.391	0.407
NCI-H1975	0.792	0.942	0.916	0.995	1.08	0.55	0.636	0.712	0.658	0.654	0.782	0.898	0.673	0.672	0.691	0.809	0.805	0.815	0.8	0.735
NCI-H1993	0.856	0.809	0.744	0.745	0.947	0.667	0.732	0.63	0.768	0.711	0.545	0.614	0.551	0.579	0.536	1.21	1.13	1.03	0.997	1.08
NCI-H2009	1.12	1.48	0.963	1.04	1.26	1.24	1.12	1.1	1.15	1.1	0.69	0.72	0.728	0.735	0.692	0.679	0.74	0.613	0.655	0.669
